The target of assay [1] is T1, FAAH prepared from rat brain homogenates (Rattus norvegicus, UniProt P97612).
T1 sequence (P97612 1-579): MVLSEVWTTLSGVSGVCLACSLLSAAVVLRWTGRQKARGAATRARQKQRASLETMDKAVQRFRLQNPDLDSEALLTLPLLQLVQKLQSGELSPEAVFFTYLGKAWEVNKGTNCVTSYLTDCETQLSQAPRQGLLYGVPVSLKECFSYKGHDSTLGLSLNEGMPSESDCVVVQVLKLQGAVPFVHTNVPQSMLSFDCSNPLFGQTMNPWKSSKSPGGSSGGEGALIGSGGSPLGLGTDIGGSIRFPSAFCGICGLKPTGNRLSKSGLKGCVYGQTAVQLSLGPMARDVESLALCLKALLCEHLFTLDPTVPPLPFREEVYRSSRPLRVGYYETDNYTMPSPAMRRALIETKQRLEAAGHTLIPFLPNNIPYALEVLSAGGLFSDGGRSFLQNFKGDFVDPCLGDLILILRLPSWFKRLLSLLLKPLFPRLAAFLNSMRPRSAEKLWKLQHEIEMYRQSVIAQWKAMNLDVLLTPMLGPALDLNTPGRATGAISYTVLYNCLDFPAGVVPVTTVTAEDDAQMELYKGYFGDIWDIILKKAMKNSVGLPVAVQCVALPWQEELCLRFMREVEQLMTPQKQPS
The assay is described as follows: In vitro rat FAAH radiometric assay. Format: biochemical. Particulars: for IC50: read-out: r-FAAH IC50; for IC50 / % inhibition of FAAH activity at 100 μM: rat brain homogenate; for Increase in potency vs 34a: relative to 34a.

In a further assay the target is T2, human FAAH-1 (Homo sapiens, UniProt O00519).
T2 sequence (O00519 1-579): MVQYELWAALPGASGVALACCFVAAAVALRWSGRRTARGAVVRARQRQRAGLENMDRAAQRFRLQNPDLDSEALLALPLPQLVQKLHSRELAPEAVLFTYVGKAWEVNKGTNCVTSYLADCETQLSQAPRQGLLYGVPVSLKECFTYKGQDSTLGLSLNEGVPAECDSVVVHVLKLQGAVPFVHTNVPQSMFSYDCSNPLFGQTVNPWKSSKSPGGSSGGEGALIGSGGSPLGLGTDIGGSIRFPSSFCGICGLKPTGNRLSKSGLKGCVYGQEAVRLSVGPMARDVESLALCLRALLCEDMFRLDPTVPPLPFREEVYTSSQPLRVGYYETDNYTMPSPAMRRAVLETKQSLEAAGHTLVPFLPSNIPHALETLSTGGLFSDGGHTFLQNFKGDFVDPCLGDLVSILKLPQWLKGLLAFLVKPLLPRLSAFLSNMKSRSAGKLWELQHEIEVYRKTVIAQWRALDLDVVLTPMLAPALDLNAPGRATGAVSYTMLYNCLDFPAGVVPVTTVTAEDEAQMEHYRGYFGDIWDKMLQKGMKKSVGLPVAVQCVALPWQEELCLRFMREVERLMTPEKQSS
Nature of the assay: In vitro human FAAH fluorescent assay. Format: biochemical. Particulars: h-FAAH-1 IC50 relative to r-FAAH IC50.

“And” between values parts separate entries of the source, which are not always exact repeats. Equal entries are not always repeated. Where two headings read alike, the source gives them in different places.

Turning to `O=C(NC1CCCCC1)OCc1cccc(-c2ccccc2)c1` [Compound 4, (3-phenylphenyl)methyl N-cyclohexylcarbamate], the inhibition at 100 µM in assay [1] (read-out: % inhibition of FAAH activity at 100 μM) came to 65%.

Consider `O=C(NC1CCCCC1)OCc1cn(-c2ccccc2)nn1` [Compound 17, (1-phenyltriazol-4-yl)methyl N-cyclohexylcarbamate], for which the IC50 in assay [1] (mean ± SEM (n=3)) is 0.381 µM.

As for `O=C(NC1CCCCC1)OCc1cn(Cc2ccccc2)nn1` [Compound 18, (1-benzyltriazol-4-yl)methyl N-cyclohexylcarbamate], in assay [1] (r-FAAH, relative to 1a), the “Less potent than 1a (URB524)” value was found to be 4.6 fold. Also, in assay [1] (r-FAAH, relative to 17), the “Increase in potency vs compound 17” value is “ca. 15 fold”. Moreover, in assay [1] (mean ± SEM (n=3)), the IC50 was 0.026 µM and 0.0262 µM.

Take `O=C(NC1CCCCC1)OCc1cn(CCc2ccccc2)nn1` [Compound 19, (1-phenethyltriazol-4-yl)methyl N-cyclohexylcarbamate]: in assay [1] (mean ± SEM (n=3)), the IC50 came out at 0.833 ± 0.129 µM.

Consider `O=C(NC1CCCCC1)OCc1cn(C(c2ccccc2)c2ccccc2)nn1` [Compound 20, (1-benzhydryltriazol-4-yl)methyl N-cyclohexylcarbamate], for which the “% inhibition of FAAH activity at 100 μM” value in assay [1] came out at 73% @ 100 μM.

Turning to `O=C(NC1CCCCC1)OCc1cn(Cc2ccc3ccccc3c2)nn1` [Compound 21, [1-(2-naphthylmethyl)triazol-4-yl]methyl N-cyclohexylcarbamate], the half-maximal inhibitory concentration (IC50) in assay [1] is 2 µM; in assay [1] (mean ± SEM (n=3)), 2 ± 0.636 µM.

`N#Cc1ccccc1Cn1cc(COC(=O)NC2CCCCC2)nn1` [Compound 22a, [1-[(2-cyanophenyl)methyl]triazol-4-yl]methyl N-cyclohexylcarbamate]: in assay [1] (mean ± SEM (n=3)), the half-inhibitory concentration (IC50) was found to be 0.0195 ± 0.0043 µM.

Regarding `N#Cc1cccc(Cn2cc(COC(=O)NC3CCCCC3)nn2)c1` [Compound 22b, [1-[(3-cyanophenyl)methyl]triazol-4-yl]methyl N-cyclohexylcarbamate], the half-maximal inhibitory concentration (IC50) in assay [1] (mean ± SEM (n=3)) turned out to be 0.0215 ± 0.0079 µM.

`N#Cc1ccc(Cn2cc(COC(=O)NC3CCCCC3)nn2)cc1` [Compound 22c, [1-[(4-cyanophenyl)methyl]triazol-4-yl]methyl N-cyclohexylcarbamate]: the IC50 in assay [1] (mean ± SEM (n=3)) came out at 2.28 ± 0.585 µM.

As to `O=C(NC1CCCCC1)OCc1cn(Cc2ccccc2F)nn1` [Compound 23a, [1-[(2-fluorophenyl)methyl]triazol-4-yl]methyl N-cyclohexylcarbamate], on human FAAH-1, the “Loss of potency on h-FAAH-1 vs r-FAAH” value came out at 62 fold. Also, in assay [1] (mean ± SEM (n=3)), the half-inhibitory concentration (IC50) stood at 0.0099 ± 0.0019 µM.

Take `O=C(NC1CCCCC1)OCc1cn(Cc2cccc(F)c2)nn1` [Compound 23b, [1-[(3-fluorophenyl)methyl]triazol-4-yl]methyl N-cyclohexylcarbamate]: the concentration for half-maximal inhibition (IC50) in assay [1] (mean ± SEM (n=3)) worked out at 0.0121 ± 0.0008 µM.

As for `O=C(NC1CCCCC1)OCc1cn(Cc2ccc(F)cc2)nn1` [Compound 23c, [1-[(4-fluorophenyl)methyl]triazol-4-yl]methyl N-cyclohexylcarbamate], the IC50 in assay [1] (mean ± SEM (n=3)) is 0.0955 ± 0.0222 µM.

In the case of `O=C(NC1CCCCC1)OCc1cn(Cc2ccccc2Cl)nn1` [Compound 24a, [1-[(2-chlorophenyl)methyl]triazol-4-yl]methyl N-cyclohexylcarbamate], the “Loss of potency on h-FAAH-1 vs r-FAAH” value on human FAAH-1 is given as 172 fold. In addition, in assay [1] (mean ± SEM (n=3)), the IC50 was 0.0062 ± 0.0013 µM.

Consider `O=C(NC1CCCCC1)OCc1cn(Cc2cccc(Cl)c2)nn1` [Compound 24b, [1-[(3-chlorophenyl)methyl]triazol-4-yl]methyl N-cyclohexylcarbamate], for which the half-inhibitory concentration (IC50) in assay [1] (mean ± SEM (n=3)) worked out at 0.0132 ± 0.0028 µM.

On to `O=C(NC1CCCCC1)OCc1cn(Cc2ccc(Cl)cc2)nn1` [Compound 24c, [1-[(4-chlorophenyl)methyl]triazol-4-yl]methyl N-cyclohexylcarbamate], for which the IC50 in assay [1] (mean ± SEM (n=3)) worked out at 0.215 ± 0.031 µM.

Consider `Cc1ccccc1Cn1cc(COC(=O)NC2CCCCC2)nn1` [Compound 25a, [1-(o-tolylmethyl)triazol-4-yl]methyl N-cyclohexylcarbamate], for which, in assay [1] (mean ± SEM (n=3)), the 50% inhibitory concentration (IC50) stood at 0.0215 ± 0.0012 µM.

On to `Cc1cccc(Cn2cc(COC(=O)NC3CCCCC3)nn2)c1` [Compound 25b, [1-(m-tolylmethyl)triazol-4-yl]methyl N-cyclohexylcarbamate], for which the concentration for half-maximal inhibition (IC50) in assay [1] (mean ± SEM (n=3)) was 0.0245 ± 0.0062 µM.

Turning to `Cc1ccc(Cn2cc(COC(=O)NC3CCCCC3)nn2)cc1` [Compound 25c, [1-(p-tolylmethyl)triazol-4-yl]methyl N-cyclohexylcarbamate], the IC50 in assay [1] (mean ± SEM (n=3)) came to 0.5 ± 0.044 µM.

In the case of `COc1ccccc1Cn1cc(COC(=O)NC2CCCCC2)nn1` [Compound 26a, [1-[(2-methoxyphenyl)methyl]triazol-4-yl]methyl N-cyclohexylcarbamate], the “Loss of potency on h-FAAH-1 vs r-FAAH” value on human FAAH-1 was found to be 240 fold. Further, the IC50 in assay [1] (mean ± SEM (n=3)) worked out at 0.0014 ± 0.0002 µM.

As to `COc1cccc(Cn2cc(COC(=O)NC3CCCCC3)nn2)c1` [Compound 26b, [1-[(3-methoxyphenyl)methyl]triazol-4-yl]methyl N-cyclohexylcarbamate], in assay [1] (mean ± SEM (n=3)), the IC50 was determined as 0.0118 ± 0.0037 µM.

For `COc1ccc(Cn2cc(COC(=O)NC3CCCCC3)nn2)cc1` [Compound 26c, [1-[(4-methoxyphenyl)methyl]triazol-4-yl]methyl N-cyclohexylcarbamate], the IC50 in assay [1] (mean ± SEM (n=3)) came out at 0.627 ± 0.173 µM.

As for `O=C(NC1CCCCC1)OCc1cn(Cc2c(F)cccc2F)nn1` [Compound 28, [1-[(2,6-difluorophenyl)methyl]triazol-4-yl]methyl N-cyclohexylcarbamate], in assay [1] (mean ± SEM (n=3)), the half-maximal inhibitory concentration (IC50) turned out to be 0.0119 ± 0.001 µM.

For `O=C(NC1CCCCC1)OCc1cn(Cc2cc(F)cc(F)c2)nn1` [Compound 29, [1-[(3,5-difluorophenyl)methyl]triazol-4-yl]methyl N-cyclohexylcarbamate], the half-inhibitory concentration (IC50) in assay [1] (mean ± SEM (n=3)) turned out to be 0.0104 ± 0.0026 µM.

Consider `COc1cccc(Cn2cc(COC(=O)NC3CCCCC3)nn2)c1F` [Compound 30, [1-[(2-fluoro-3-methoxy-phenyl)methyl]triazol-4-yl]methyl N-cyclohexylcarbamate], for which the IC50 in assay [1] (mean ± SEM (n=3)) amounted to 0.0446 ± 0.0103 µM.

`O=C(NC1CCCCC1)OCCc1cn(-c2ccccc2)nn1` [Compound 32, 2-(1-phenyltriazol-4-yl)ethyl N-cyclohexylcarbamate]: in assay [1] (r-FAAH, relative to 17), the “Decrease in potency vs compound 17” value is recorded as “ca. 3 fold”. Besides, the IC50 in assay [1] (mean ± SEM (n=3)) worked out at 1.28 ± 0.084 µM.

Regarding `O=C(NC1CCCCC1)OCCc1cn(Cc2ccccc2)nn1` [Compound 33, 2-(1-benzyltriazol-4-yl)ethyl N-cyclohexylcarbamate], the IC50 in assay [1] (mean ± SEM (n=3)) was determined as 2.54 ± 0.106 µM.

For `COc1ccccc1Cn1cc(CNC(=O)OCc2cn(Cc3ccccc3OC)nn2)nn1` [Compound 34a, [1-[(2-methoxyphenyl)methyl]triazol-4-yl]methyl N-[[1-[(2-methoxyphenyl)methyl]triazol-4-yl]methyl]carbamate], the IC50 in assay [1] (mean ± SEM (n=3)) amounted to 0.154 ± 0.014 µM.

Regarding `COc1cccc(Cn2cc(CNC(=O)OCc3cn(Cc4ccccc4OC)nn3)nn2)c1` [Compound 37, [1-[(2-methoxyphenyl)methyl]triazol-4-yl]methyl N-[[1-[(3-methoxyphenyl)methyl]triazol-4-yl]methyl]carbamate], the “Loss of potency on h-FAAH-1 vs r-FAAH” value at human FAAH-1 lay within 4 to 10 fold. Moreover, in assay [1] (r-FAAH), the “Increase in potency vs 34a” value worked out at 48 fold. In addition, the half-maximal inhibitory concentration (IC50) in assay [1] (mean ± SEM (n=3)) amounted to 0.0032 ± 0.0012 µM.

For `COc1ccc(Cn2cc(CNC(=O)OCc3cn(Cc4ccccc4OC)nn3)nn2)cc1` [Compound 38, [1-[(2-methoxyphenyl)methyl]triazol-4-yl]methyl N-[[1-[(4-methoxyphenyl)methyl]triazol-4-yl]methyl]carbamate], the “Loss of potency on h-FAAH-1 vs r-FAAH” value at human FAAH-1 was in the range of 4 to 10 fold. Further, the IC50 in assay [1] (mean ± SEM (n=3)) was found to be 0.0076 ± 0.0006 µM.

Turning to `COc1cccc(Cn2cc(COC(=O)NCc3cn(Cc4ccccc4OC)nn3)nn2)c1` [Compound 39, [1-[(3-methoxyphenyl)methyl]triazol-4-yl]methyl N-[[1-[(2-methoxyphenyl)methyl]triazol-4-yl]methyl]carbamate], the “Loss of potency on h-FAAH-1 vs r-FAAH” value on human FAAH-1 is reported as 4 to 10 fold. In addition, the “Increase in potency vs 34a” value in assay [1] (r-FAAH) is given as “ca. 15 fold”. Besides, the IC50 in assay [1] (mean ± SEM (n=3)) amounted to 0.0098 ± 0.0004 µM.

With `O=C(NC1CCCCC1)OCc1ncn(-c2ccccc2)n1` [Compound 43], the “% inhibition of FAAH activity at 100 μM” value in assay [1] was 70% @ 100 μM.

For `O=C(NC1CCCCC1)OCc1ncn(Cc2ccccc2)n1` [Compound 46], in assay [1] (mean ± SEM (n=3)), the IC50 was 51.5 ± 1.12 µM.
